Data reported in US4839465A, “Di-(D-tryptophyl and/or tetrahydropyridoindolylcarbonyl)-containing peptide amides and process for preparation thereof” (Sterling Drug Inc., priority 1987, dated 1989).
Like-named read-outs stand apart in the source and are kept apart here. Where a SMILES comes first, the peptide text is derived from it. [ ]: non-standard residue; d: D form. Tpi = O=C(O)[C@@H]1Cc2c([nH]c3ccccc23)CN1; dTpi = O=C(O)[C@H]1Cc2c([nH]c3ccccc23)CN1

Columns and labels:
[1] = biological target: T1, SP receptor (rat brain tissue) (Rattus norvegicus, UniProt P14600); test: Rat brain tissue 3H-SP competitive binding; conditions: for effect on 3H-SP binding: specificity and sensitivity of the binding assay, rat brain tissue; for Kd: crude rat brain tissue, 3H-SP, read-out: Substance P Competitive Binding KD
T1 construct: from tissue; host or cells: crude rat brain tissue
T1 sequence (P14600 whole entry): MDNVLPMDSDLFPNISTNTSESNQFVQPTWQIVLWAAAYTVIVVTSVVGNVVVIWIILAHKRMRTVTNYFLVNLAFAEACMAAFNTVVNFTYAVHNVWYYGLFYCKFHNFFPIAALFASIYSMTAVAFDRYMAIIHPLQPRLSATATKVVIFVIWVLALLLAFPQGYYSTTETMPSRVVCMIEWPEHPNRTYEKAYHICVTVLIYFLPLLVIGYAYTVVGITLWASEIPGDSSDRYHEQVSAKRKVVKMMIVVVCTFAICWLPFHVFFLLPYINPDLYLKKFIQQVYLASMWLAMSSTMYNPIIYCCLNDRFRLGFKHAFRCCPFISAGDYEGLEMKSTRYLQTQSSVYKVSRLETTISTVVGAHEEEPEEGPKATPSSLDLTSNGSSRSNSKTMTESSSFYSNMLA
Protocol: Crude rat brain tissue is suspended in buffer containing protease inhibitors and calcium ions and magnesium ions and incubated under nitrogen atmosphere with ^3 H-SP and test compound. The bound SP is then separated from free SP by filtration and quantitated by liquid scintillation spectroscopy. This test meets the criteria of reversibility,saturability, sensitivity to known SP agonists and antagonists, and specificity for an SP receptor binding assay.
With regard to reversibility, addition of unlabelled SP causes a gradual decrease in bound ^3 H-SP, showing that SP is not irreversibly bound to the receptors in the tissue. With regard to saturability, the amount of bound ^3 H-SP in the preparation increases in direct proportion to the concentration of ^3 H-SP added until a saturation point is reached. […] With regard to sensitivity, known SP agonists and antagonists inhibit ^3 H-SP binding.
The results are expressed in terms of the equilibrium constant KD in nanomoles per liter (nM), which takes into account the concentration of ^3 H-SP.

[2] = tested on: acetylcholine-induced writhing; test: Mouse acetylcholine-induced writhing test; format: in vivo; conditions: intrathecal, acetylcholine 3.2 mg./kg. i.p. five minutes after injection
Protocol: Male Swiss-Webster mice (18-24 g.) are divided into groups of 8-15 mice. A test compound in a vehicle or the vehicle alone is administered intrathecally in a volume of 5 μl by the method of Hylden and Wilcox (European Journal of Pharmacology, vol. 67, pp. 313-316, 1980) except that caudal cutaneous incision is not performed prior to injection. Five minutes after the injection a solution of acetylcholine (3.2 mg./kg., the approximate ED90) in 0.9% aqueous sodium chloride is administered intraperitoneally to each mouse. […] For test compounds which produce a graded dose-response ED50 values with 95% confidence limits are determined by probit analysis of the data.

[3] = tested on: Substance P effect in isolated guinea pig ileum longitudinal muscle; test: Guinea pig ileum test, Substance P agonist and antagonist effect; format: cell-based
Protocol: Strips of longitudinal muscle (derived from terminal ileum of adult male guinea pigs (Charles River, 400-600 g.) are mounted in 5-ml. organ baths containing oxygenated Krebs solution containing 1 μM each of atropine and pyrilamine maintained at 30°-33° C. and connected to isometric transducers. Following tissue equilibration and repeated washing (45-60 min.), SP or an appropriate reference agonist is added cumulatively to the bath and contractions of the tissue are recorded. The bath is washed thoroughly and 30-45 min. is allowed to elapse before construction of a second reference agonist curve to assure reproducibility of the responses. Test compounds are similarly evaluated for agonist activity up to a maximum concentration of 10-100 μM. Regression analysis of the linear portion of the log concentration-percent maximal response curves provides the EC50 (and 95% confidence limits), the standard measure of agonist potency. When appropriate, relative molar potency ratios are calculated (EC50 reference/ED50 test drug). Antagonist activity is examined by pretreating thoroughly washed tissues with test compound (using a standard 5-10 min. contact time), then constructing a cumulative dose-response curve to the reference agonist. The effects of several concentrations of test antagonist, pooled across separate experiments, provide dose-ratio (EC50 shift) data for a standard Schild plot analysis, with computation of the pA2.

gastric juice secretion = conditions: in vivo; cited from earlier work
[4] = Schild plot, 5-10 min. contact time, guinea pig ileum longitudinal muscle

Molecule | Kd [1] | Substance P Antagonist pA2 [3, 4] | also measured
COc1cc(CNC(=O)CCCC/C=C/C(C)C)ccc1O [capsaicin, reference compound] |  |  | effect on 3H-SP binding [1]: do not affect
CSCC[C@H](NC(=O)[C@H](CC(C)C)NC(=O)[C@@H](Cc1c[nH]c2ccccc12)NC(=O)[C@H](Cc1ccccc1)NC(=O)[C@@H]1Cc2c([nH]c3ccccc23)CN1)C(N)=O [Example 5, H--Tpi--Phe--trp--Leu--Met--NH2] (H-[Tpi]F[dW]LM-NH2) | 59 nM |  | 
CSCC[C@H](NC(=O)[C@H](CC(C)C)NC(=O)[C@@H](Cc1c[nH]c2ccccc12)NC(=O)[C@H](Cc1ccccc1)NC(=O)[C@H]1Cc2c([nH]c3ccccc23)CN1)C(N)=O [Example 4, H--tpi--Phe--trp--Leu--Met--NH2] (H-[dTpi]F[dW]LM-NH2) | 42 nM | 6.4 | ED50, protection against acetylcholine-induced writhing [2]: 0.7 μg/mouse
NCC(CC(=O)O)c1ccc(Cl)cc1 (stereo not drawn) [baclofen, reference compound] |  |  | effect on 3H-SP binding [1]: do not affect
CC(C)C[C@H](NC(=O)[C@@H](Cc1c[nH]c2ccccc12)NC(=O)[C@H](Cc1ccccc1)NC(=O)[C@H](N)Cc1c[nH]c2ccccc12)C(=O)N[C@@H](Cc1ccccc1)C(N)=O [Example 8, H--trp--Phe--trp--Leu--Phe--NH2] (H-[dW]F[dW]LF-NH2) |  |  | Substance P Antagonist pA2 [3]: 6.28
CC(C)C[C@H](NC(=O)[C@@H](Cc1c[nH]c2ccccc12)NC(=O)[C@H](Cc1ccccc1)NC(=O)[C@@H](Cc1c[nH]c2ccccc12)NC(=O)[C@@H]1CCCN1)C(N)=O [Example 3, H--Pro--trp--Phe--trp--Leu--NH2] (H-P[dW]F[dW]L-NH2) | 35 nM | 5.1 | 
H--Tpi--Bpa--trp--Leu--Phe--NH2 H--Tpi--bpa--trp--Leu--Phe--NH2 (mixture of isomers) [Example 7, H--Tpi--Bpa--trp--Leu--Phe--NH2 H--Tpi--bpa--trp--Leu--Phe--NH2 (mixture of isomers)] |  | 6.25 | 
CC(C)C[C@H](NC(=O)[C@H]1Cc2c([nH]c3ccccc23)CN1C(=O)[C@H](Cc1ccccc1)NC(=O)[C@@H](Cc1c[nH]c2ccccc12)NC(=O)[C@@H]1CCCN1)C(=O)N[C@@H](Cc1ccccc1)C(N)=O [Example 6, H--Pro--trp--Phe--tpi--Leu--Phe--NH2] (H-P[dW]F[dTpi]LF-NH2) | 39 nM | 6.4 | 
CC(C)C[C@H](NC(=O)[C@@H](Cc1c[nH]c2ccccc12)NC(=O)[C@H](Cc1ccccc1)NC(=O)[C@H]1Cc2c([nH]c3ccccc23)CN1)C(=O)N[C@@H](Cc1ccccc1)C(N)=O [Example 9, H--tpi--Phe--trp--Leu--Phe--NH2] (H-[dTpi]F[dW]LF-NH2) |  |  | Substance P Antagonist pA2 [3]: 6.65
Z--Tca--Met--Asp--Phe--NH2 [Tca-tetragastrin] |  |  | gastric juice stimulating activity (gastric juice secretion): having gastric juice stimulating activity
CC(C)C[C@H](NC(=O)[C@@H](Cc1c[nH]c2ccccc12)NC(=O)[C@H](Cc1ccccc1)NC(=O)[C@@H](Cc1c[nH]c2ccccc12)NC(=O)[C@@H]1CCCN1)C(=O)N[C@@H](Cc1ccccc1)C(N)=O [Example 2, H--Pro--trp--Phe--trp--Leu--Phe--NH2] (H-P[dW]F[dW]LF-NH2) | 22 nM | 6.4 | 
CSCC[C@H](NC(=O)[C@H](CC(C)C)NC(=O)[C@@H](Cc1c[nH]c2ccccc12)NC(=O)[C@H](Cc1ccccc1)NC(=O)[C@H](N)Cc1c[nH]c2ccccc12)C(N)=O [Example 1, H--trp--Phe--trp--Leu--Met--NH2] (H-[dW]F[dW]LM-NH2) |  |  | EC50 [3]: > 1000 nM; Substance P agonist activity ([3]; guinea pig ileum, not quantified): Some agonist activity was noted
